Measured values from paper PMC12292445, “Physiologically Based Pharmacokinetic Modeling for Predicting Drug Levels After Bariatric Surgery: Vardenafil Exposure Before vs. After Gastric Sleeve/Bypass” (Biomolecules, 2025).
≈ marks a conversion by molar mass, not a printed value. Where two headings read alike, the source gives them in different places.

Legend:
[1] = stated in discussion, no source given; cited from earlier work
[2] = physchem; format: physicochemical
Method: The equilibrium solubility of vardenafil was determined by the previously described shake-flask method. Four different medium pHs were used: pH 1 and pH 3 (0.2 M maleic acid), pH 5 (0.2 M acetic acid), and pH 7 (0.2 M dihydrogen phosphate). Quadruplet (n = 4) samples of each buffer pH were prepared with drug powder added in excess, until saturation, to vials with 500 µL medium solution. Vial incubation was at 37 °C, with 200 rpm sample shaking for 24 h (Orbital Shaker Incubator, MRC Laboratory Instruments, Holon, Israel). Sample contents were then transferred to Eppendorf tubes for a 10 min centrifugation (Centrifuge 5430 R, Eppendorf®, Hamburg, Germany) at 20,817 rcf and 37 °C. Obtained supernatants were diluted as needed and immediately analyzed by UPLC-PDA (Table 1).

[3] = physchem; format: physicochemical; conditions: human; for solubility: thermodynamic from solid
Method: The equilibrium solubility of vardenafil in gastric content was also tested using the shake-flask method mentioned above, which followed a procedure that had been recently described. In short, excess drug was added to glass vials containing samples of gastric content aspirated from three patients (1 SG, 1 RYGB, and 1 OAGB) during bariatric procedure time. Aspiration was performed through the nasogastric tube at three time points: before, immediately after , and 24 h post-surgery. Study protocol approval was given by the Ben-Gurion University School of Medicine institutional review board (institutional board request number 0248-18-SOR), and informed consent was obtained from all the participants prior to surgery. Following gastric content collection, pH was immediately measured and recorded. […] As vardenafil hydrochloride powder modified the pH of the post-bariatric gastric fluid, pH was adjusted with a small volume pH 7 buffer, as necessary.

[4] = design: method as in earlier work; conditions: healthy fasted humans, digitized mean profile, cited from earlier work
[5] = clinical
Method: Values were either obtained from the literature, in silico predictions (ADMET Predictor® module, version 10.4.0.0; Simulations Plus Inc., Lancaster, CA, USA) based on the drug’s molecular structure, or experimentally determined. pH-dependent solubility data were input as an .spd file and used to fit the solubility factors in the solubility model. Drug dissolution along the GIT was calculated using the software default Johnson equation [58] based on the drug’s solubility and particle size. With the lack of data on commercial product drug particle size, 100 µm was chosen as an approximate value for all simulations. Regarding poor aqueous solubility, bile salts’ effect on drug solubility/dissolution was also accounted for. The drug precipitation time was set as the default 900 s. […] The distribution and elimination PK parameters of vardenafil were based on available data of in vivo plasma concentration over time following IV and PO drug administration, using the software-integrated PKPlus^TM module and optimized further while keeping the final values within the reported literature range (Table 3).

[6] = In vitro dissolution of whole tablets under pre- vs post-bariatric gastric conditions; format: physicochemical; conditions: Levitra 20 mg tablet
Method: The dissolution of whole tablet vardenafil (20 mg) products was studied in three different conditions, as previously described (n = 4 for each condition): (1) pH 1 maleic acid, 250 mL medium (pre-surgery conditions), with the USP dissolution apparatus II (Premiere 5100, Distek®, North Brunswick, NJ, USA), at 100 rpm paddle rotation; […] This rotation velocity was calculated, addressing the following parameters: the paddle size (D), volume of fluid (V), and agitation strength (ε), as follows: εlong/εshort=RPMlong3 × Dlong5/Vlong/RPMshort3 × Dshort5/Vshort These adjusted experimental conditions mimic pre- vs. post-bariatric intragastric dissolution conditions, including the pH, temperature, fluid volume, and contractility force, and were thus preferred over standard, compendial dissolution methods. Next, 300 µL samples were drawn for 90 min at 10 different time points and then filtered prior to ultra-performance liquid chromatography (UPLC) analysis (Table 1).

[7] = estimated with PKPlus from in vivo IV and oral data, then optimized

CCCc1nn(C)c2c(=O)[nH]c(-c3cc(S(=O)(=O)N4CCN(C)CC4)ccc3OCC)nc12 [sildenafil]
pKa [1]: ~ 7

CCCc1nc(C)c2c(=O)[nH]c(-c3cc(S(=O)(=O)N4CCN(CC)CC4)ccc3OCC)nn12 [vardenafil]
solubility at 24 h ([2]; 37 °C, pH 3, aqueous buffer, thermodynamic from solid): > 30 mg/mL | solubility at 24 h ([2]; 37 °C, pH 5, aqueous buffer, thermodynamic from solid): 27.4 mg/mL (≈ 56.1 mM) | solubility at 24 h ([2]; 37 °C, pH 7, aqueous buffer, thermodynamic from solid): 0.05 mg/mL (≈ 0.102 mM) | Decrease in saturation solubility ([2]; 24 h): over 600 fold | Solubility at 37 °C ([2]; 24 h, pH 1): 30 mg/mL (≈ 61.4 mM) | Solubility at 37 °C ([2]; 24 h, pH 3): 30 mg/mL (≈ 61.4 mM) | solubility at 24 h ([2]; pH 1): > 30 mg/mL | Lower ex vivo solubility after vs. before the surgery [3]: > 500 fold | solubility ([3]; pH 2, plasma or biological fluid): > 30 mg/mL | solubility ([3]; pH 7, plasma or biological fluid): 0.06 mg/mL (≈ 0.123 mM) | AUC0−inf, observed ([4]; 10 mg single oral dose): 27.29 ng·h/mL | Cmax, observed ([4]; 10 mg single oral dose): 7.20 ng/mL | Tmax, observed ([4]; 10 mg single oral dose): 57 min | AUC0−inf, observed ([4]; 20 mg single oral dose): 41.86 ng·h/mL | Cmax, observed ([4]; 20 mg single oral dose): 16.30 ng/mL | Tmax, observed ([4]; 20 mg single oral dose): 46.8 min | Distribution constant k12 [5, 7]: 3.090 h⁻¹ | Distribution constant k13 [5, 7]: 0.448 h⁻¹ | Distribution constant k21 [5, 7]: 2.100 h⁻¹ | Distribution constant k31 [5, 7]: 0.250 h⁻¹ | Vd ([5]; human): 0.8 L/kg | clearance ([5]; human): 15.4 mL/min/kg | Dissolution (dose dissolved) ([6]; post-OAGB conditions, pH 7, 50 mL): 4% | Dissolution (dose dissolved) ([6]; post-SG conditions, pH 5, 50 mL): 100% | Dissolution (dose dissolved) ([6]; pre-surgery conditions, pH 1, 250 mL): 100% | pKa [1]: ~ 7
